Data reported in patent publication US7795378B2, “Peptide compositions for treatment of sexual dysfunction” (Palatin Technologies, Inc., priority 2002, dated 2010).
Where a SMILES comes first, the peptide text is derived from it. [ ]: non-standard residue; d: D form. The star is where a group is joined. dPhe(4-Cl) = N[C@H](Cc1ccc(Cl)cc1)C(=O)O; Ahp = NCCCCCCC(=O)O; Bn = c1ccc(C*)cc1

Columns and labels:
hMC3-R = target: T1, hMC3-R (Homo sapiens, UniProt P41968); assay: Competitive inhibition binding assay with 125I-NDP-MSH, MC3 receptor; conditions: 10 μM peptide, 0 assigned when raw inhibition between −10% and 10%, read-out: % Inhibition at 10 μM concentration at MC3-Receptor
T1 construct: expressed in transfected cells; host or cells: HEK 293 cells (membranes)
Protocol: (§1) Competitive inhibition binding assay was conducted using membranes prepared from hMC3-R, hMC4-R, hMC5-R, and B-16 mouse melanoma cells (containing MC1-R) using 0.4 nM ^125I-NDP-MSH (0.2 nM for MCL-R) (New England Nuclear, Boston, Mass., USA) in 50 mM HEPES buffer containing 1 mM MgCl2, 2 mM CaCl2, and 5 mM KCl, at pH 7.2. The assay tube also contained a chosen concentration of the peptides of this invention, for determining inhibition of the binding of ^125I-NDP-MSH to its receptor. Non-specific binding was measured by complete inhibition of binding of ^125I-NDP-MSH in the assay in the presence of 1 μM α-MSH. Incubation was for 90 minutes at 37° C., after which the assay mixture was filtered and the membranes washed three times with ice cold buffer. The filter was dried and counted in a gamma counter for remaining radioactivity bound to the membranes. 100% specific binding was defined as the difference in radioactivity (cpm) bound to cell membranes in the absence and presence of 1 μM α-MSH. The cpm obtained in the presence of peptides of this invention were normalized with respect to 100% specific binding to determine the percent inhibition of ^125I-NDP-MSH binding. Each assay was conducted in triplicate.
(§2) The binding of the peptides of Examples 1 to 13, inclusive, to melanocortin receptors was evaluated, with results shown on Table 1. Relative binding was determined by competitive inhibition using an α-MSH analog, iodinated NDP-MSH. B16-Fl mouse melanoma cells were used as the source of MC1 receptors and HEK 293 cells, transfected with human melanocortin receptor sequences, were used as the source of MC3, MC4 and MC5 receptors. A standard competitive binding assay protocol as described above was followed, using ^125I-NDP-MSH as the radioligand. A “0” percent inhibition was assigned when the raw percent inhibition, as an average of at least triplicate measures, was between −10% and 10%; in the majority of instances, the raw percent inhibition was between −10% and 0% inhibition.

male rats = assay: Induced penile erections after pre-administration of MC4-R antagonist SHU9119; type: in vivo, rat; conditions: SHU9119 approximately 5 minutes before peptide
Text: It is known that MC4-R antagonists inhibit the erectile activity of MC4-R agonists in a dose dependent manner. Such antagonists include SHU9119, a nonselective melanocortin antagonist of the formula Ac-Nle-cyc/o(-Asp-His-D-Nal(2′)-Arg-Trp-Lys)-NH2 (Hruby V. J., Lu D., Sharma S. D., et al. Cyclic lactam alpha-melanotropin analogues of Ac-Nle^4-cyclo[Asp^5, D-Phe^7, Lys^10]-NH2 with bulky aromatic amino acids at position 7 show high antagonist potency and selectivity at specific melanocortin receptors. J Med Chem 38:3454-3461 (1995)). Antagonists such as SHU9119 are known to inhibit MT-II and other known melanocortin receptor-specific agonists that induce erectile activity. SHU9119 was administered to male rats approximately 5 minutes before administration of either NH2—(CH2)6CO-Ser(Bzl)-D-Phe(4-Cl)-Arg or NH2—(CH2)6CO-Ser(Bzl)-D-Phe(4-Cl)-Arg-Trp-NH2, with Ac-Nle-cyc/o(Asp-His-D-Phe-Arg-Trp-Lys)-OH, a known MC4-R agonist, as a positive control.

male Sprague-Dawley rats = assay: Induction of penile erections in male rats; type: in vivo, rat
Protocol: The ability of the peptides of Examples 1 to 13 to induce penile erection in male rats was evaluated. Male Sprague-Dawley rats weighing 200-250 g were kept on a 12 hour on/off light cycle with food and water ad libitum. All behavioral studies were performed between 10 a.m. and 5 p.m. Groups of 4-8 rats were treated with peptides at a variety of doses via intravenous administration. Immediately after administration, rats were placed into individual polystyrene cages (27 cm long, 16 cm wide, and 25 cm high) for behavioral observation.
The efficacious dose of NH2—(CH2)6CO-Ser(Bzl)-D-Phe(4-Cl)-Arg, made as in Example 1 above, to induce penile erection in Sprague Dawley rats by intravenous dosing and oral administration was determined. […] NH2—(CH2)6CO-Ser(Bzl)-D-Phe(4-Cl)-Arg was efficacious at doses as low as 0.1 to 1 μg/kg of body weight when administered by oral means, and at doses lower than 0.001 μg/kg of body weight when administered by intravenous means.
The efficacious dose of NH2—(CH2)6—CO-Ser(Bzl)-D-Phe(4-Cl)-Arg(NO2), made as in Example 5 above, to induce penile erection in Sprague Dawley rats by intravenous dosing was determined. […] It was determined that NH2—(CH2)6—CO-Ser(Bzl)-D-Phe(4-Cl)-Arg(NO2) was efficacious at doses as low as 0.001 to 10 μg/kg of body weight when administered by intravenous means, with efficacy determined by induction of penile erection in 100% of animals. The optimal dose response was at 1 μg/kg of body weight. FIG. 1 depicts the dose response profile, with the error bars depicting standard deviation where n (the number of animals) is between 8 and 19, depending on the dose point.
The efficacious dose of NH2—(CH2)6—CO-Ser(Bzl)-D-Phe(4-Cl)-Arg(NO2), made as in Example 5 above, to induce penile erection in Sprague Dawley rats by intranasal administration using a micropipetor to deliver 25 μL of solution into one nostril was determined. […] It was determined that NH2—(CH2)6—CO-Ser(Bzl)-D-Phe(4-Cl)-Arg(NO2) was efficacious at doses between 0.01 μg/kg and 100 μg/kg of body weight when administered by intranasal means. The peak dose response was at an intranasal dose of 0.1 μg/kg of body weight.

hMC5-R = target: T2, hMC5-R (Homo sapiens, UniProt P33032); assay: Competitive inhibition binding assay with 125I-NDP-MSH, MC5 receptor; conditions: 10 μM peptide, 0 assigned when raw inhibition between −10% and 10%, read-out: % Inhibition at 10 μM concentration at MC5-Receptor
T2 construct: expressed in transfected cells; host or cells: HEK 293 cells (membranes)
Protocol: as §1, §2

[1] = system: panel of known central and peripheral receptors and neurotransmitters, ion channels and enzymes systems; assay: Receptor specificity screening panel; type: binding; conditions: 10 μM concentration
Protocol: The peptide NH2—(CH2)6CO-Ser(Bzl)-D-Phe(4-Cl)-Arg was tested at 10 μM concentration for binding to a panel of known central and peripheral receptors and neurotransmitters, including steroid receptors, neurotransmitter receptors, brain/gut peptide receptors, growth factor/hormone receptors and other receptors, and for interaction with a panel of known ion channels and enzymes systems.

hMC4-R = target: T3, hMC4-R (Homo sapiens, UniProt P32245); assay: Competitive inhibition binding assay with 125I-NDP-MSH, MC4 receptor; conditions: 10 μM peptide, 0 assigned when raw inhibition between −10% and 10%, read-out: % Inhibition at 10 μM concentration at MC4-Receptor
T3 construct: expressed in transfected cells
Protocol: as §1, §2

[2] = target: T4, MC1-R (B16-F1 mouse melanoma cells) (Mus musculus, UniProt Q01727); assay: Competitive inhibition binding assay with 125I-NDP-MSH, MC1 receptor; conditions: 10 μM peptide, 0 assigned when raw inhibition between −10% and 10%, read-out: % Inhibition at 10 μM concentration at MC1-Receptor
T4 construct: B-16 mouse melanoma cells (containing MC1-R); endogenous in cells; host or cells: B16-F1 mouse melanoma cells (membranes)
Protocol: as §1, §2

T1 sequence (P41968 whole entry): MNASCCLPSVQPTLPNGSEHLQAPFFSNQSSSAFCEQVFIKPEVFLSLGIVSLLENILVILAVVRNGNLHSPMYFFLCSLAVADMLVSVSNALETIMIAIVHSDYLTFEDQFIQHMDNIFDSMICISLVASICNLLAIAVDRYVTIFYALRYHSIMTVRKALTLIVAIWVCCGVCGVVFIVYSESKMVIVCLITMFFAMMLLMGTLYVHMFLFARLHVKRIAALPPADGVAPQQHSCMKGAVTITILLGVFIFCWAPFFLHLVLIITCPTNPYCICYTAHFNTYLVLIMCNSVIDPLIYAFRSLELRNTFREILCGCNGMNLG
T3 sequence (P32245 whole entry): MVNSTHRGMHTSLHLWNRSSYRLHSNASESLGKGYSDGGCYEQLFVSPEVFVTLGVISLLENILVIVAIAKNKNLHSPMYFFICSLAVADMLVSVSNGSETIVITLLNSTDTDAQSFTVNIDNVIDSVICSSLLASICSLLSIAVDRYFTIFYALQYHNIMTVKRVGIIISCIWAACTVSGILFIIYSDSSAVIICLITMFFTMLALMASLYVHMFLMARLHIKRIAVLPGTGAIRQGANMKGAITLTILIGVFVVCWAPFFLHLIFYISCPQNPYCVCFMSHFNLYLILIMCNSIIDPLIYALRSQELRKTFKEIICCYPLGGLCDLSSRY
T2 sequence (P33032 whole entry): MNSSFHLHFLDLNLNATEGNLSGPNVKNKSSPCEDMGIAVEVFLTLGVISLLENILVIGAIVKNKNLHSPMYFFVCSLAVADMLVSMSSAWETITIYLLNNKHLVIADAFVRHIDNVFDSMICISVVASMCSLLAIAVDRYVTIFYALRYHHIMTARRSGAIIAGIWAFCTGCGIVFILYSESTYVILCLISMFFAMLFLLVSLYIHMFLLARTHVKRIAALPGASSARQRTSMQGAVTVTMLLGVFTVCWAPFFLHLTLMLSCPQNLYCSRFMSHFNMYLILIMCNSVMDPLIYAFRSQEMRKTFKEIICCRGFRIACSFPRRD
T4 sequence (Q01727 whole entry): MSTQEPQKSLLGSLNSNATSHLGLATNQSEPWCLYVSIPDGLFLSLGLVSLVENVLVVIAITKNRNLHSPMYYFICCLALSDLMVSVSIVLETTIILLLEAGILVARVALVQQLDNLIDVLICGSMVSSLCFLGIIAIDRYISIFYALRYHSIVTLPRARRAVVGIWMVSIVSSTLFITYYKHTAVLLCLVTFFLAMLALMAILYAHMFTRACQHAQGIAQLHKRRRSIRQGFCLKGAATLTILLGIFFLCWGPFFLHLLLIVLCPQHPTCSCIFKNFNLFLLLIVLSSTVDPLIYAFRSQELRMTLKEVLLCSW

**Q.** How did the inhibition at 10 µM (hMC3-R) turn out when `N=C(N)NCCC[C@H](NC(=O)[C@@H](Cc1ccc(Cl)cc1)NC(=O)[C@H](COCc1ccccc1)NC(=O)CCCCCCN)C(=O)O` [NH2—(CH2)6—CO-Ser(Bzl)-D-Phe(4-Cl)-Arg, NH2—(CH2)6CO-Ser(Bzl)-D-Phe(4-Cl)-Arg] (H-[Ahp]S(Bn)[dPhe(4-Cl)]R-OH) was run?
**A.** 0%

**Q.** What about the “effect of SHU9119 pre-administration on induced erections” value (male rats) of the same compound?
**A.** resulted in erections at a rate equivalent to that obtained without pre-administration of SHU9119

**Q.** What about the “human dose for oral delivery, extrapolated (could be as low as)” value (male Sprague-Dawley rats; extrapolated from rat to human, oral) of the same compound?
**A.** 1 mg

**Q.** And the “efficacious dose to induce penile erection, intravenous” value (male Sprague-Dawley rats; male Sprague Dawley rats, intravenous)?
**A.** lower than 0.001 μg/kg

**Q.** And the “oral dose at which peptide may be biologically active (as low as)” value (male Sprague-Dawley rats; male rats, oral)?
**A.** 250 ng/kg

**Q.** What about the inhibition at 10 µM (hMC5-R) of the same compound?
**A.** 0%

**Q.** What about the “binding or activity at panel members” value [1] of the same compound?
**A.** No binding or activity

**Q.** What about the inhibition at 10 µM (hMC4-R) of the same compound?
**A.** 0%

**Q.** And the inhibition at 10 µM [2]?
**A.** 0%
